Experimental data reported in patent US6727237B2, “Inhibitors of bacterial NAD synthetase” (priority 1998, dated 2004).
Where “and” joins values, the source holds several entries; their conditions need not be identical. Identical values can stand only once.

What was measured:
[1] = biological target: T1, bacterial NAD synthetase enzyme (Bacillus subtilis, UniProt P08164); test: biochemical; assay type: biochemical
T1 sequence (P08164 2-272 limits assumed): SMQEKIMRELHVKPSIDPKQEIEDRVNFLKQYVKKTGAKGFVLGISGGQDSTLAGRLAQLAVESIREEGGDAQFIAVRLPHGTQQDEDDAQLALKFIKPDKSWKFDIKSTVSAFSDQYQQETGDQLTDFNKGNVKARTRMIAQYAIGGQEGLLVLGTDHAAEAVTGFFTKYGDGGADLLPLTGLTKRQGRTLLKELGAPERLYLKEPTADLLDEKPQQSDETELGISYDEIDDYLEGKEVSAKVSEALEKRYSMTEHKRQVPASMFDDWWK

[2] = system: Staphylococcus epidermitis; test: Bacterial growth inhibition screen in LB media (absorbance 595 nm), percent inhibition; details: for % Inhibition: S. epidermitis
[3] = compound at 0.2 mM (Table 312A)

Compound	% Inhibition [1, 3] [%]	% Inhibition ([2]; concentration screened 10 uM)	% Inhibition ([2]; concentration screened 100 uM) [%]	other results
c1ccc(-c2ccc3[nH]c(CCCCCCCC[n+]4ccc5ccccc5c4)cc3c2)cc1 [Compound 545]	32.18	15.39%		
c1ccc(C(c2ccccc2)(c2ccccc2)c2ccc3[nH]c(CCCCCCCC[n+]4cccc5ccccc54)cc3c2)cc1 [Compound 449]	8.67	7.73%		
COc1ccc2[nH]c(CCCC[n+]3ccccc3)cc2c1 [Compound 373]	14.13	1.53%		% Inhibition ([1]; compound at 0.1 mM (Table 314)): 7.72%
O=[N+]([O-])c1ccc2[nH]c(CCCCC[n+]3cccc4ccccc43)cc2c1 [Compound 440]	12.69	8.77%		
O=[N+]([O-])c1cc([N+](=O)[O-])c2[nH]c(CCCCCC[n+]3ccccc3)cc2c1 [Compound 309]			99.07	% Inhibition ([1]; compound at 0.1 mM (Table 314)): 41.47%
O=C(OCCCCCCCCc1cc2cc(C(F)(F)F)ccc2[nH]1)c1ccccc1-c1ccccc1 [Compound 614]	8.32		20.35	
CC(=O)c1ccc2[nH]c(CCCCCC[n+]3ccccc3)cc2c1 [Compound 369]	35.33		100.00	
COc1ccc2[nH]c(CCCC[n+]3ccc4ccccc4c3)cc2c1 [Compound 589]		29.35%		% Inhibition ([1]; compound at 0.1 mM (Table 314)): 24.98%
c1ccc(-c2ccc3[nH]c(CCCCC[n+]4cccc5ccccc54)cc3c2)cc1 [Compound 434]	5.36	5.64%		
FC(F)(F)c1ccc2[nH]c(CCCCC[n+]3ccc4ccccc4c3)cc2c1 [Compound 578]	30.96		97.79	
c1ccc2c[n+](CCCCCCc3cc4ccccc4[nH]3)ccc2c1 [Compound 501]	4.98		7.93	
CN(C)c1ccc(C(=O)OCCCCCCCCc2cc3cc(Oc4ccccc4)ccc3[nH]2)cc1 [Compound 620]	19.03		12.69	
Fc1ccc2[nH]c(CCCCC[n+]3cccc4ccccc43)cc2c1 [Compound 452]	20.04	8.22%		
CC(=O)c1ccc2[nH]c(CCCCC[n+]3ccc4ccccc4c3)cc2c1 [Compound 584]	68.79		96.07	
FC(F)(F)c1ccc2[nH]c(CCCCCC[n+]3ccc4ccccc4c3)cc2c1 [Compound 579]	12.57	5.57%		
O=C(c1ccccc1)c1ccc2[nH]c(CCCCCC[n+]3cccc4ccccc43)cc2c1 [Compound 465]	7.92	8.08%		
c1ccc(Oc2ccc3[nH]c(CCCCCCC[n+]4ccc5ccccc5c4)cc3c2)cc1 [Compound 568]	18.95	3.10%		
C[n+]1cccc(C(=O)OCCCCCCn2ccc3cc([N+](=O)[O-])ccc32)c1 [Compound 865]	46.43	50.42% and 48.55%	94.40	
O=C(c1ccccc1)c1ccc2[nH]c(CCCCC[n+]3ccc4ccccc4c3)cc2c1 [Compound 572]	31.02		96.57	
c1ccc(-c2ccc3[nH]c(CCCCC[n+]4ccc5ccccc5c4)cc3c2)cc1 [Compound 542]	15.89		96.93	
CC(C)c1ccc2[nH]c(CCCCC[n+]3ccc4ccccc4c3)cc2c1 [Compound 536]	32.49		96.64	
c1ccc(C(c2ccccc2)(c2ccccc2)c2ccc3[nH]c(CCCCC[n+]4cccc5ccccc54)cc3c2)cc1 [Compound 446]	13.78	3.69%		
FC(F)(F)c1ccc2[nH]c(CCCCCCC[n+]3ccccc3)cc2c1 [Compound 364]	29.20	2.16%		
FC(F)(F)c1ccc2cc(CCCC[n+]3cccc4ccccc43)[nH]c2c1 [Compound 397]		5.85%		% Inhibition ([1]; compound at 0.1 mM (Table 314)): 4.51%
c1ccc(Oc2ccc3[nH]c(CCCC[n+]4cccc5ccccc54)cc3c2)cc1 [Compound 457]	3.31	4.67%		
CCCCc1ccc2[nH]c(CCCCC[n+]3ccc4ccccc4c3)cc2c1 [Compound 530]	20.52		27.36	
C[n+]1cccc(C(=O)OCCCCn2ccc3cc(OCc4ccccc4)ccc32)c1 [Compound 765]				inhibition at 100 µM [1]: 90%; IC50 ([1]; lead compounds (Table 318A), read-out: IC 50): 90 µM; inhibition of growth at 10 µM ([2]; Staphylococcus, read-out: % Inhibition, S. epidermitis, concentration screened 10 uM): 9.31%

Compound	% Inhibition [1, 3] [%]	% Inhibition ([2]; concentration screened 10 uM)	% Inhibition ([2]; concentration screened 100 uM) [%]	other results
Fc1ccc2[nH]c(CCCCCCC[n+]3ccc4ccccc4c3)cc2c1 [Compound 562]	46.44	9.44%		
COC(=O)c1ccc[n+](CCCCn2ccc3cc([N+](=O)[O-])ccc32)c1 [Compound 9]	28.02	31.80%		
CC(C)c1ccc2[nH]c(CCCCC[n+]3cccc4ccccc43)cc2c1 [Compound 428]	26.53	5.85%		
CC(=O)c1ccc2[nH]c(CCCCOC(=O)c3ccc(N(C)C)cc3)cc2c1 [Compound 636]	17.36		6.72	
Cc1ccc2[nH]c(CCCCCCC[n+]3cccc4ccccc43)cc2c1 [Compound 406]	10.96	6.41%		
Fc1ccc2[nH]c(CCCCC[n+]3ccc4ccccc4c3)cc2c1 [Compound 560]	46.91		98.43	
O=C(OCCCCCCCc1cc2cc(C(=O)c3ccccc3)ccc2[nH]1)c1cccnc1 [Compound 694]		2.59%		
CN(C)c1cccc(C(=O)OCCCCCCn2ccc3cc([N+](=O)[O-])ccc32)c1 [Compound 838]		17.65%		
CN(C)c1cccc(C(=O)OCCCCc2cc3cc(C(=O)c4ccccc4)ccc3[nH]2)c1 [Compound 642]			8.86	
COc1ccc2c(ccn2CCCCOC(=O)c2cc3ccccc3[n+](C)c2)c1 [Compound 820]		65.74%		
CC(=O)c1ccc2[nH]c(CCCCCCCOC(=O)c3ccncc3)cc2c1 [Compound 706]		6.68%		
O=C(OCCCCCCCc1cc2cc(Oc3ccccc3)ccc2[nH]1)c1cccnc1 [Compound 661]		39.31%		
O=C(OCCCCCCCc1cc2cc(C(F)(F)F)ccc2[nH]1)c1ccccc1-c1ccccc1 [Compound 613]		1.36%		
O=C(OCCCCCCCCc1cc2cc(C(F)(F)F)ccc2[nH]1)c1cccnc1 [Compound 656]		2.59%		
CN(C)c1ccc(C(=O)OCCCCCCCCCn2ccc3cc([N+](=O)[O-])ccc32)cc1 [Compound 847]		19.84%		
CC(=O)c1ccc2[nH]c(CCCCOC(=O)C(c3ccccc3)c3ccccc3)cc2c1 [Compound 669]			11.24	
CN(C)c1cccc(C(=O)OCCCCCCCc2cc3cc(C(=O)c4ccccc4)ccc3[nH]2)c1 [Compound 643]		15.46%		
O=C(OCCCCCCCCc1cc2cc([N+](=O)[O-])ccc2[nH]1)C(c1ccccc1)c1ccccc1 [Compound 726]		16.76%		
O=C(OCCCn1ccc2cc([N+](=O)[O-])ccc21)c1cccnc1 [Compound 855]		49.58%		
O=C(OCCCCCCCCc1cc2cc(C(=O)c3ccccc3)ccc2[nH]1)c1ccncc1 [Compound 710]		6.95%		
FC(F)(F)c1ccc2[nH]c(CCCCCC[n+]3cccc4ccccc43)cc2c1 [Compound 471]		14.07%		
O=C(OCCCCCCCCc1cc2cc(Oc3ccccc3)ccc2[nH]1)c1ccccc1-c1ccccc1 [Compound 623]			34.17	
CC(=O)c1ccc2[nH]c(CCCCOC(=O)c3ccccc3-c3ccccc3)cc2c1 [Compound 639]			7.41	
CN(C)c1ccc(C(=O)OCCCCCn2ccc3cc([N+](=O)[O-])ccc32)cc1 [Compound 843]		2.20%		
CN(C)c1cccc(C(=O)OCCCCc2cc3cc(Oc4ccccc4)ccc3[nH]2)c1 [Compound 615]			11.81	
c1ccc2[nH]c(CCCC[n+]3cccc4ccccc43)cc2c1 [Compound 391]		5.29%		
c1ccc(Oc2ccc3[nH]c(CCCCCC[n+]4cccc5ccccc54)cc3c2)cc1 [Compound 459]		16.09%		
